The values that follow come from patent US11925655B2, “FAP-activated therapeutic agents, and uses related thereto” (Bach Biosciences, LLC, priority 2014, dated 2024).

Where two headings read alike, the source gives them in different places.

One may read the Km as the substrate concentration at which the rate is half of its maximum. As usually defined, the Vmax is the top rate of the reaction or transport when substrate is in excess. Broadly, the kcat is the maximal rate divided by the concentration of active sites. By kcat/Km is commonly meant the turnover number divided by the Michaelis constant. For orientation: EC50 means the concentration that produces a half-maximal response.

Data set [1] concerns COc1cccc2c1C(=O)c1c(O)c3c(c(O)c1C2=O)C[C@@](O)(C(=O)CO)C[C@@H]3OC1CC(NC(=O)[C@@H]2CCCN2C(=O)[C@@H](C)NC(=O)c2ccncc2)C(O)C(C)O1. Type of data set: biochemical. The note with it: other: 1.34×10^−8 M FAP, 37° C., pH 7.5. The procedure:
Michaelis-Menten enzyme kinetics for FAP were measured using a SpectraMax M2e microplate reader (Molecular Devices, Sunnyvale, CA, USA). The assays were performed in FAP buffer (50 mM Tris, 140 mM NaCl, pH 7.5) at 25° C., and the fluorescence continuously monitored at excitation and emission wavelengths of 380 and 460 nm, respectively. Kinetic constants (kcat and Km) were determined using GP-AMC (Bachem, Torrance, CA, USA), Ac-(D)-AP-AFC (MP Biomedicals, Solon, OH, USA) and test article concentrations equivalent to 0.1-5 times their respective Km values, and with 5-10 nM enzyme. All assays were performed in triplicate, and the results were calculated with a nonlinear regression analysis, relying on a Michaelis-Menten curve fit using GraphPad software.
3099DOX at various concentrations ranging from 8.5×10^−6 M to 6.9×10^−4 M was incubated with 1.34×10^−8 M FAP or PREP at 37° C., and released doxorubicin measured.

Data set [2] has as its system COc1cccc2c1C(=O)c1c(O)c3c(c(O)c1C2=O)C[C@@](O)(C(=O)CO)C[C@@H]3OC1CC(NC(=O)[C@@H]2CC(F)(F)CN2C(=O)CNC(=O)c2ccnc3ccccc23)C(O)C(C)O1. Description: FAP digest of 5057DOX (kinetics). Type of data set: biochemical.
The next data set has as its target T1, FAP (Homo sapiens, UniProt Q12884).
T1 sequence (Q12884 1-760): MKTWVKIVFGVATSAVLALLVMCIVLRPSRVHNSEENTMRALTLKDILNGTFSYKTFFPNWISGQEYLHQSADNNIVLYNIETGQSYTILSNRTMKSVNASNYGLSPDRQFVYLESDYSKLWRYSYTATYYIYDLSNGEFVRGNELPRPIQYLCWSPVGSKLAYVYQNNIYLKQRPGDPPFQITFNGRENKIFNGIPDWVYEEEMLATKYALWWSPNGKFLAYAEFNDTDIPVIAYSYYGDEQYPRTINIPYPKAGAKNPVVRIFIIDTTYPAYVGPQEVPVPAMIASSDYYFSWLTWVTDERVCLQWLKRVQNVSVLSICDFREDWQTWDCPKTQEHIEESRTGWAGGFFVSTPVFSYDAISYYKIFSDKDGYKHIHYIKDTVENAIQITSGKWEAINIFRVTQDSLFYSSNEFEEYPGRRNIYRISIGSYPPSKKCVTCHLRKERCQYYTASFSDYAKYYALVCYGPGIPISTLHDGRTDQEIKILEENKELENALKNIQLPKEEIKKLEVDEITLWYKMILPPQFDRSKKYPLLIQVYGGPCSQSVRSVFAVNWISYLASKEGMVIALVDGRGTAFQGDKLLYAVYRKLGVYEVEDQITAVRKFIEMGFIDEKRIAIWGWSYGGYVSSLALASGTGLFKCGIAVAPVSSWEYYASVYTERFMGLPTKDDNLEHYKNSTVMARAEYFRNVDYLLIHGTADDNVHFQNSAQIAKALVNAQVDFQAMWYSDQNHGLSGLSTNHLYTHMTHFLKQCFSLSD
Description: Specificity of activation: digest with FAP. The note with it: 100 μM prodrug, 24 hours at 37° C. Type of data set: biochemical. The procedure:
(§1) Total doxorubicin was measured for each assay.

A short description of data set [3]: Stability in mouse muscle lysate. The note with it: 100 μM prodrug, 37° C., 12 h.
In data set [4] the target is dipeptidyl peptidase IV (DPP IV) (Homo sapiens, UniProt P27487). The experiment in a line: Specificity of activation: digest with DPP IV. Format: biochemical. Particulars: 100 μM prodrug, 24 hours at 37° C. The protocol:
as §1

In another data set the target is T2, PREP (Homo sapiens, UniProt P48147).
T2 sequence (P48147 1-710): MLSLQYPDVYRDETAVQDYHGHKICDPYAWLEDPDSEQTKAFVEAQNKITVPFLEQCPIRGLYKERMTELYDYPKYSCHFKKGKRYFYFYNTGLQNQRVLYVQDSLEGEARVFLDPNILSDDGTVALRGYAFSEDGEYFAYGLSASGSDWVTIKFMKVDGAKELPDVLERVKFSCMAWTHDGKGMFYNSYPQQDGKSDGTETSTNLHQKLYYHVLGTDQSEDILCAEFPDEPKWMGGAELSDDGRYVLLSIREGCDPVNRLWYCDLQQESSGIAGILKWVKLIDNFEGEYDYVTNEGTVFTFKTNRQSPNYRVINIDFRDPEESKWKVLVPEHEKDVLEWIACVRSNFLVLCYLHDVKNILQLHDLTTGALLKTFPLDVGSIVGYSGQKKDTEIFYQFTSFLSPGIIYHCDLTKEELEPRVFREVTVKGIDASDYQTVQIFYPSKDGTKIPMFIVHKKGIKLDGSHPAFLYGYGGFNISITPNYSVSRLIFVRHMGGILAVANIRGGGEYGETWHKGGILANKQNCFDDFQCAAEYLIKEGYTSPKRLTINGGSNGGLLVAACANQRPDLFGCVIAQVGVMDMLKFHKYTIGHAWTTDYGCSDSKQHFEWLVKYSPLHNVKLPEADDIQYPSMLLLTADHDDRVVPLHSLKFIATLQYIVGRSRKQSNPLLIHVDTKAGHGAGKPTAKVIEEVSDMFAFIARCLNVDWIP
The experiment in a line: Specificity of activation: digest with PREP. Type of data set: biochemical. Particulars: 100 μM prodrug, 24 hours at 37° C. The procedure: as §1

Another data set concerns CT26 cells. Description: CellTiter-Blue cell viability assay with CT26 cells. The note with it: Mus musculus. Format: cell-based. In general terms: The colour change of resazurin is a common sign of viable cells or microbes.
The test system of a further data set is HEK-mFAP cells. Description: CellTiter-Blue cell viability assay with HEK-mFAP cells. Type of data set: cell-based, human. The note with it: Homo sapiens, 5107DOX assay, 72 hour incubation.
The mark [5] stands for this setting: other: 5057DOX assay 6, [FAP] 4.00 × 10^−9M.
The mark [6] stands for this setting: other: 5057DOX assay 7, [FAP] 1 nM.

Chain of dipeptidyl peptidase IV (DPP IV) (P27487 whole entry, species assumed): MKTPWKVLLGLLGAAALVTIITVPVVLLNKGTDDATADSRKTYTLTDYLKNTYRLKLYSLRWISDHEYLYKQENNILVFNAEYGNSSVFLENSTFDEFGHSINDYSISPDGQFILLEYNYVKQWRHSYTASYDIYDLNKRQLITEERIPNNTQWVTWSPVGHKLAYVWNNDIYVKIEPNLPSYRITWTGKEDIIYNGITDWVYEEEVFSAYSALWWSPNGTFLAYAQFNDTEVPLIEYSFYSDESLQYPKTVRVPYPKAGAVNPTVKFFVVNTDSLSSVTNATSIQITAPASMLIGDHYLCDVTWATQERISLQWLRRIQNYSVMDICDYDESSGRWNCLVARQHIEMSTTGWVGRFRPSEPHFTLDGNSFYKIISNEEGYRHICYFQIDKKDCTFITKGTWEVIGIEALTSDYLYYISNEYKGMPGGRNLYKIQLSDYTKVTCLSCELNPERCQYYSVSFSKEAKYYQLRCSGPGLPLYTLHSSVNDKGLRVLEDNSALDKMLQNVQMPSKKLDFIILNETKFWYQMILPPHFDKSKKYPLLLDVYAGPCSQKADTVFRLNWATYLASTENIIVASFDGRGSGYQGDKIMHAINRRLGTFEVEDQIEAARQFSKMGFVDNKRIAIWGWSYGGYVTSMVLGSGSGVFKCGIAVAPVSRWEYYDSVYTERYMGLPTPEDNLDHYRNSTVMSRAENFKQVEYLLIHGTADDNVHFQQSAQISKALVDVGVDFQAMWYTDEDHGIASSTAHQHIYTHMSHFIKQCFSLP

On to FAP (Homo sapiens), for which, in data set [1], the Km is 11.2 µM, the Vmax amounted to 5.877e-09 M/s, the catalytic constant (kcat) turned out to be 0.44 s⁻¹ and the specificity constant (kcat/Km) turned out to be 39171 M⁻¹ s⁻¹. Moreover, in data set [2] (setting [5]), the Km result was “Km 1.11 × 10^−5M M”, the Vmax result is “Vmax 5.19 × 10^−9M/sec M/sec” and the kcat/Km result was “kcat/Km 1.17 × 10^5M^−1sec^−1 M^−1sec^−1”. For the same molecule, in data set [2] (setting [6]), the Michaelis-Menten constant (Km) result is “Km 4.85 × 10^−6M M”, the kcat result was “Kcat 0.98 sec^−1 sec^−1” and the kcat/Km result is on record as “Kcat/Km 2.00 × 10^5M^−1 sec^−1 M^−1 sec^−1”.
With `COc1cccc2c1C(=O)c1c(O)c3c(c(O)c1C2=O)C[C@@](O)(C(=O)CO)C[C@@H]3O[C@H]1C[C@H](NC(=O)[C@@H]2CCCN2C(=O)CNC(=O)OCc2ccccc2)[C@H](O)[C@H](C)O1` [z-GP-DOX, reference compound], at FAP, the “doxorubicin released by FAP” value is “A similar amount of doxorubicin was released”. Further, the “doxorubicin released in mouse muscle lysate” value in data set [3] was “a large amount of doxorubicin”. Also, in data set [4], the “doxorubicin released by DPP IV” value is listed as “essentially none”. Also, the “doxorubicin released by PREP” value at PREP is “A similar amount of doxorubicin was released”.
`COc1cccc2c1C(=O)c1c(O)c3c(c(O)c1C2=O)C[C@@](O)(C(=O)CO)C[C@@H]3OC1CC(NC(=O)[C@@H]2CCCN2C(=O)[C@@H](C)NC(=O)[C@H](CO)NC(=O)CCC(=O)O)C(O)C(C)O1` (stereo partly shown) [Compound 3996DOX]: at FAP (as much doxorubicin as from the other prodrugs), the “doxorubicin released by FAP, relative amount” value is on record as “about 15%”. For the same molecule, the “doxorubicin released by DPP IV” value in data set [4] is given as “essentially none”. Also, the EC50 in the data set with CT26 cells (read-out: EC50 (prodrug + 50 nM FAP)) was 26 µM; with CT26 cells (read-out: EC50 (prodrug + 50 nM PREP)), 210 µM; with CT26 cells (read-out: EC50 (prodrug alone)) it was 190 µM. Moreover, the “doxorubicin released by PREP” value on PREP was “essentially none”.
`COc1cccc2c1C(=O)c1c(O)c3c(c(O)c1C2=O)C[C@@](O)(C(=O)CO)C[C@@H]3OC1CC(NC(=O)[C@@H]2CC(F)(F)CN2C(=O)[C@@H](C)NC(=O)c2ccnc3ccccc23)C(O)C(C)O1` (stereo partly shown) [Compound 5107DOX]: the EC50 with HEK-mFAP cells (read-out: EC50 (prodrug + 100 uM 5057-2)) is over 100 µM; with HEK-mFAP cells (read-out: EC50 (prodrug alone)), 0.94 µM.
